The values that follow are results of earlier work, collected in US6645979B2, “(7-(3-carboxyphenyl)-4-chloroisoquinolin-1-yl)guanidine” (Pfizer Inc., priority 2000, dated 2003).

For the series, the target named is urinary-type plasminogen activator (uPA, urokinase) (Homo sapiens, UniProt P00749). As to conditions: general statement, no value given.

As to `NC(N)=Nc1ncc(Cl)c2ccc(-c3cccc(C(=O)O)c3)cc12` [Compound (I), (7-(3-carboxyphenyl)-4-chloroisoquinolin-1-yl)guanidine], the uPA antagonist potency entry is “potent”.
